Assay results as given in US7038014B2, “Polycation-sensing receptor in aquatic species and methods of use thereof” (Brigham and Women's Hospital, priority 1996, dated 2006).
Where “and” joins values, the source holds several entries; their conditions need not be identical. Equal entries are not always repeated. Where two headings read alike, the source gives them in different places.

Key:
SKCaR (SEQ ID NO.: 2) = assay: FURA 2 intracellular calcium assay of SKCaR activation in transfected HEK cells; format: cell-based, dogfish shark (Squalus acanthias)
Source text: SKCaR cDNA (SEQ ID NO.: 1) was ligated into the mammalian expression vector PCDNA II and transfected into HEK cells using standard techniques. The presence of SKCaR protein (SEQ ID NO.: 2) in transfected cells was verified by western blotting. Activation of SKCaR (SEQ ID NO.: 2) by extracellular Ca2+, Mg2+ or NaCl was quantified using a well characterized FURA 2 based assay where increases in intracellular Ca2+ produced by SKCaR activation are detected using methodology published previously the Dr. E. Brown's laboratory (Bai, M., S. Quinn, S. Trvedi, O. Kifor, S. H. S. Pearce, M. R. Pollack, K. Krapcho, S. C. Hebert and E. M. Brown. Expression and characterization of inactivating and activating mutations in the human Ca2+-sensing receptor. J. Biol. Chem., 32:19537–19545 (1996)) and expressed as % normalized intracellular calcium response to receptor activation.

[1] = test system: isolated urinary bladder of winter flounder (PVCR; thiazide-sensitive NaCl cotransporter); assay: Water reabsorption (Jv) in isolated winter flounder urinary bladder, gravimetric; format: cell-based, winter flounder (Pseudopleuronectes americanus); conditions: for water reabsorption (Jv): control Jv 130±28; for inhibition of water reabsorption: application of agent, concentration not stated (summary); for IC50: read-out: half maximal inhibitory concentration for urinary bladder Jv (IC50); for reversibility of inhibitory effect on Jv: upon removal of agonist
Procedure: To provide further evidence linking Aquatic PVCRs to fish osmoregulation, isolated urinary bladder of winter founder was used to investigate whether PVCRs modulate epithelial cell ion transport. […] Water reabsorption from the urine stored in urinary bladder allows for the concentrations of both Mg^2+ and Ca^2+ to increase to values as high as 84 mM and 7 mM respectively in marine founders (Elger, E. B., et al., J. Como. Physiol., B157:21 (1987)). 5 Net apical to basolateral water flux (Jv) was measured gravimetrically in 10 minute intervals using individual urinary bladder excised from winter flounder. […] The weight of the bladder was measured before and after the experimental period, wherein the experimental period comprised the period of time that the isolated bladder was exposed to test compound. The compound to be tested (e.g., test compound) was added to both serosal and mucosal solutions. The bladders were dried and weighted as described in Renfro et al. The difference in bladder weight prior to and after exposure to test compound is an indication of water reabsorption by the bladder.
Endocrinol. 127:1064–1071 (1990). […]

mammalian CaRs = target: T1, mammalian CaRs (Bos taurus, UniProt P35384); conditions: literature value; cited from earlier work
T1 sequence (P35384 20-1085): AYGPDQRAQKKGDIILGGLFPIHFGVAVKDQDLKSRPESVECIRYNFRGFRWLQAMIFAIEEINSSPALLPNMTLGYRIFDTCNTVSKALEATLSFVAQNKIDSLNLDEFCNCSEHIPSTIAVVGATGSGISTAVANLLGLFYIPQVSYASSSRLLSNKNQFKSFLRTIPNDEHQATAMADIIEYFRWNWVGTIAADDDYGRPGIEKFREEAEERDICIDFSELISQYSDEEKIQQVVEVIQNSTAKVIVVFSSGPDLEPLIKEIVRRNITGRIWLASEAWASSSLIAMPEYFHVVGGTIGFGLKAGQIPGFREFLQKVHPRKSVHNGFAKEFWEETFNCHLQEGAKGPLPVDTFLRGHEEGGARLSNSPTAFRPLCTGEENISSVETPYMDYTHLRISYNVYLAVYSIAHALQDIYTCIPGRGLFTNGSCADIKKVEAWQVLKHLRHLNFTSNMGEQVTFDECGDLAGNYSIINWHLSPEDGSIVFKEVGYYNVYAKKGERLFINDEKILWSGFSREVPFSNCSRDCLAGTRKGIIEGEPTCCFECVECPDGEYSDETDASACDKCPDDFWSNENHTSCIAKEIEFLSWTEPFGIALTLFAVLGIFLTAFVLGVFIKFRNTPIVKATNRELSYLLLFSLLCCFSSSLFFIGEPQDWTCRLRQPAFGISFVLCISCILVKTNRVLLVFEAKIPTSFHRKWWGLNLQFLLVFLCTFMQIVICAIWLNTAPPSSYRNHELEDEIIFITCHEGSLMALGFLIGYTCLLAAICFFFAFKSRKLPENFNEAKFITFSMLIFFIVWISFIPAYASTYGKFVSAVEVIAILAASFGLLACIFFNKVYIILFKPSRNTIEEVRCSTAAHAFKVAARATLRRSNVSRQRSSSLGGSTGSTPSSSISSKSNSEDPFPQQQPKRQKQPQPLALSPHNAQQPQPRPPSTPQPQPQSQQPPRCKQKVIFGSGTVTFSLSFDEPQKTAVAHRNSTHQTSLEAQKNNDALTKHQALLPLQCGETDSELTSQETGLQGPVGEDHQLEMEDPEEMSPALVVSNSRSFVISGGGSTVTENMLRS

[2] = extracellular NaCl 50 mM, read-out: EC50 for activation of SKCaR
[3] = extracellular NaCl 550 mM, read-out: EC50 for activation of SKCaR

Row | Molecule | EC50 (SKCaR (SEQ ID NO.: 2); [2]) [µM] | EC50 (SKCaR (SEQ ID NO.: 2); [3]) [µM] | inhibition of water reabsorption (Jv) ([1]; 100 μM agent) [%] | water reabsorption (Jv) ([1]; 100 μM agent) [μl/gm/hr] | inhibition of water reabsorption [1] [%] | IC50 [1] [µM] | reversibility of inhibitory effect on Jv [1] | also measured
1 | [Ca+2] [Ca2+, calcium] | < 5000 | ~18000 | – | – | – | – | – | effect on sensitivity of SKCaR to Mg2+ (SKCaR (SEQ ID NO.: 2); addition of 3 mM Ca2+, as a function of extracellular NaCl): increases the sensitivity; EC50 (SKCaR (SEQ ID NO.: 2); depending on the extracellular concentration of NaCl, read-out: half maximal activation of SKCaR): 1000 to 15000 µM
2 | [Gd+3] [Gd^3+, gadolinium] | – | – | 75±5 | 32±18 | > 90 | 15 | reversible | –
3 | [Mg+2] [Mg2+, magnesium] | < 20000 | ~80000 | – | – | – | – | – | concentration range in which SKCaR is activated (SKCaR (SEQ ID NO.: 2); modulated by extracellular NaCl): 5 to 40 mM
4 | [Cl-].[Na+] [NaCl] | – | – | – | – | – | – | – | effect on sensitivity of SKCaR to Ca2+ (SKCaR (SEQ ID NO.: 2); increasing concentrations of NaCl): reduce the sensitivity
5 | NS(=O)(=O)c1cc2c(cc1Cl)NCNS2(=O)=O [hydrochlorothiazide] | – | – | 86±2 | 18±7 | > 85 | – | – | –
6 | neomycin | – | – | – | – | > 50 | 150 | reversible | IC50 (mammalian CaRs): 50 µM and 60 to 70 µM; inhibition of water reabsorption (Jv) ([1]; 200 μM agent): 52±4%; water reabsorption (Jv) ([1]; 200 μM agent): 63±10 μl/gm/hr
